In general, MIC refers to the least concentration at which growth counts as inhibited.

Structures are written as SMILES. ≈ marks a conversion by molar mass, not a printed value. Where “and” joins values, the source holds several entries; their conditions need not be identical. Equal values may be shown once.

Assay in all cases: ≥ marks a high value that may be exact or a test limit, other limits are often not marked, values filed in µg/mL are converted to µM
The test system of assay [1] is Escherichia coli E423-17.
For assay [2], the system named is Pseudomonas aeruginosa ATCC 19660.
Assay [3] concerns Pseudomonas aeruginosa PAO1.
Assay [4] has as its system Pseudomonas aeruginosa.
For assay [5], the system named is Staphylococcus aureus USA 300 LAC.
Assay [6] concerns Acinetobacter baumannii ATCC 19606.
Assay [7] has as its system Bordetella bronchiseptica CUN 11844-99.
The test system of assay [8] is Escherichia coli ATCC 25922.
For assay [9], the system named is Pseudomonas aeruginosa ATCC 27853.
Assay [10] deals with Pseudomonas aeruginosa CUN 4158-02.
In assay [11] the test system is Staphylococcus aureus ATCC 25923.
Assay [12] has as its system Staphylococcus aureus ATCC 43300.
The subject of assay [13] is Staphylococcus aureus CUN 3792-99.
The test system of assay [14] is Stenotrophomonas maltophilia CUN 3998-00.
Assay [15] concerns Bacillus subtilis 168.
Assay [16] has as its system Candida glabrata CG196/98IDE.
Assay [17] relates to Candida krusei CK802/97.
Assay [18] relates to Escherichia coli B.
In assay [19] the test system is Staphylococcus aureus.
Assay [20] concerns Bacillus subtilis AB91021.
Assay [21] has as its system Bacillus thuringiensis AB92037.
Assay [22] relates to Escherichia coli AB94012.
The subject of assay [23] is Pseudomonas aeruginosa AB93066.
Assay [24] concerns Staphylococcus aureus AB94004.
For assay [25], the system named is Staphylococcus sp.
The test system of assay [26] is Bacillus subtilis ATCC 6633.
The test system of assay [27] is Klebsiella pneumoniae ATCC 10031.
Assay [28] deals with Micrococcus luteus ATCC 10240.
Assay [29] deals with Salmonella enterica subsp. enterica serovar Typhimurium ATCC 14028.
Assay [30] has as its system Shigella dysenteriae ATCC 9752.
The test system of assay [31] is Staphylococcus aureus ATCC 6538P.
Assay [32] has as its system Staphylococcus aureus TK784.
In assay [33] the test system is Staphylococcus epidermidis ATCC 12228.
Assay [34] has as its system Candida albicans M9.
Assay [35] has as its system Escherichia coli DC2.
Assay [36] has as its system Escherichia coli K-12.
Assay [37] concerns Salmonella enterica serovar Minnesota 1114W.
For assay [38], the system named is Salmonella enterica serovar Minnesota R595.
Assay [39] has as its system Salmonella enterica subsp. enterica serovar Typhimurium LT2.
Assay [40] concerns Salmonella typhimurium 1102.
The test system of assay [41] is Staphylococcus aureus 209P.
For assay [42], the system named is Staphylococcus aureus ATCC 6538.

Take `CC[C@H](C)[C@H](NC(=O)[C@H](CCCNC(=N)N)NC(=O)[C@H](CCC(N)=O)NC(=O)[C@@H](NC(=O)[C@@H](NC(=O)[C@H](CCCNC(=N)N)NC(=O)[C@H](CCCCN)NC(=O)[C@@H](N)Cc1ccccc1)[C@@H](C)CC)C(C)C)C(=O)N[C@@H](CCCCN)C(=O)N[C@@H](CC(=O)O)C(=O)N[C@@H](Cc1ccccc1)C(=O)N[C@@H](CC(C)C)C(=O)N[C@@H](CCCNC(=N)N)C(=O)N[C@@H](CC(N)=O)C(=O)N[C@@H](CC(C)C)C(=O)N[C@H](C=O)C(C)C` [FKRIVQRIKDFLRNLV]: the MIC in [1] was 5.66 µM and 4 µM; in [2], not below 97.7 µM; in assay [3], 48.9 µM and 97.7 µM; in assay [4], 48.9 µM and 97.7 µM; in assay [5] it was 4 µM (≈ 8.12 µg/mL).
As for `NCCCC[C@H](NC(=O)CNC(=O)[C@H](CCCCN)NC(=O)[C@H](Cc1ccccc1)NC(=O)[C@H](CCCCN)NC(=O)[C@H](Cc1c[nH]c2ccccc12)NC(=O)[C@H](CCCN=C(N)N)NC(=O)[C@H](Cc1ccccc1)NC(=O)[C@H](CCCN=C(N)N)NC(=O)[C@H](CCCN=C(N)N)NC(=O)[C@H](Cc1ccc(O)cc1)NC(=O)[C@H](CCCCN)NC(=O)[C@H](CCCCN)NC(=O)[C@H](CS)NC(=O)CN)C(=O)N[C@@H](Cc1ccccc1)C(=O)N[C@@H](Cc1c[nH]c2ccccc12)C(=O)N[C@@H](Cc1ccccc1)C(=O)N[C@@H](Cc1c[nH]c2ccccc12)C(N)=O` [GCKKYRRFRWKFKGKFWFW], the MIC in assay [6] was 24.1 µM (≈ 64 µg/mL); in [7], 24.1 µM (≈ 64 µg/mL); in assay [8], 24.1 µM (≈ 64 µg/mL); in assay [9] it was 24.1 µM (≈ 64 µg/mL); in assay [10], not below 48.2 µM; in [11], 24.1 µM (≈ 64 µg/mL). For the same molecule, the MIC in [12] is 12.1 µM (≈ 32 µg/mL); in [13], 24.1 µM (≈ 64 µg/mL); in assay [14] it was not below 48.2 µM.
`CC[C@H](C)[C@H](NC(=O)[C@H](CC(C)C)NC(=O)[C@H](CCCCN)NC(=O)CNC(=O)[C@H](CC(C)C)NC(=O)[C@@H](NC(=O)[C@H](CCCCN)NC(=O)[C@H](CCCCN)NC(=O)[C@H](Cc1c[nH]c2ccccc12)NC(=O)[C@H](CCSC)NC(=O)CN)[C@@H](C)CC)C(=O)N[C@@H](CCCN=C(N)N)C(N)=O` [GMWKKILGKLIR]: the MIC in [15] was 0.8 µM (≈ 1.15 µg/mL); in [16], not below 87 µM; in assay [17], 28 µM and 13 µM; in assay [18], 2.3 µM (≈ 3.32 µg/mL); in [4], 13.1 µM (≈ 18.9 µg/mL); in assay [19], 15 µM (≈ 21.6 µg/mL).
Turning to `CC[C@H](C)[C@H](NC(=O)[C@H](CC(C)C)NC(=O)[C@H](CO)NC(=O)[C@@H]1CCCN1C(=O)[C@@H](NC(=O)[C@H](CC(C)C)NC(=O)CNC(=O)[C@H](Cc1ccccc1)NC(=O)[C@@H](N)CC(C)C)[C@@H](C)CC)C(=O)NCC(=O)NCC(=O)N[C@@H](CC(C)C)C(=O)N[C@H](C(=O)N[C@@H](CO)C(=O)N[C@@H](C)C(=O)N[C@@H](Cc1ccccc1)C(=O)N[C@@H](CCCCN)C(N)=O)C(C)C` [LFGLIPSLIGGLVSAFK], the MIC in assay [20] is 28.9 µM (≈ 50 µg/mL); in assay [21], 14.4 µM (≈ 25 µg/mL); in assay [22] it was not below 57.7 µM; in assay [23], not below 57.7 µM; in [24], 14.4 µM (≈ 25 µg/mL); in assay [25] it was 14.4 µM (≈ 25 µg/mL).
As for `CC(C)C[C@H](NC(=O)[C@H](CC(C)C)NC(=O)[C@H](CCCCN)NC(=O)[C@H](CCCCN)NC(=O)[C@H](CC(C)C)NC(=O)[C@H](CC(C)C)NC(=O)[C@H](CCCCN)NC(=O)[C@H](CCCCN)NC(=O)[C@@H](N)CC(C)C)C(=O)N[C@@H](CCCCN)C(=O)N[C@@H](Cc1c[nH]c2ccccc12)C(N)=O` [LKKLLKKLLKW], the MIC amounted to 1.42 µM (≈ 2 µg/mL) in [26]; 2.84 µM (≈ 4 µg/mL) in [8]; 2.84 µM (≈ 4 µg/mL) in assay [27]; 2.84 µM (≈ 4 µg/mL) in assay [28]; 2.84 µM (≈ 4 µg/mL) in [9]; 2.84 µM (≈ 4 µg/mL) in assay [29]. Further, the MIC stood at 1.42 µM (≈ 2 µg/mL) in assay [30], 1.42 µM (≈ 2 µg/mL) in assay [31], 11.3 µM (≈ 16 µg/mL) in [32] and 1.42 µM (≈ 2 µg/mL) in assay [33].
With `CC[C@H](C)[C@@H]1NC(=O)CNC(=O)[C@H](CCCN=C(N)N)NC(=O)[C@H](Cc2ccc(O)cc2)NC(=O)[C@@H]2CSSC[C@H](NC1=O)C(=O)N[C@@H](Cc1ccc(O)cc1)C(=O)N[C@@H](CCCN=C(N)N)C(=O)N[C@@H](CCCCN)C(=O)N[C@H](C(=O)N[C@@H](CCCN=C(N)N)C(N)=O)CSSC[C@H](NC(=O)[C@H](Cc1c[nH]c3ccccc13)NC(=O)[C@@H](N)CCCN=C(N)N)C(=O)N[C@@H](Cc1ccccc1)C(=O)N[C@@H](CCCN=C(N)N)C(=O)N[C@@H](C(C)C)C(=O)N2` [RWCFRVCYRGICYRKCR], the MIC in assay [34] amounted to 1.37 µM (≈ 3.09 µg/mL); in assay [8], 0.25 µM (≈ 0.566 µg/mL); in [35], 0.707 µM (≈ 1.6 µg/mL); in [36], 0.982 µM (≈ 2.22 µg/mL); in assay [37], 2.78 µM (≈ 6.29 µg/mL); in assay [38], 0.705 µM (≈ 1.6 µg/mL). Further, the MIC was 0.982 µM (≈ 2.22 µg/mL) in assay [39]; 0.982 µM (≈ 2.22 µg/mL) in assay [40]; 2.78 µM (≈ 6.29 µg/mL) in assay [41]; 5.51 µM and 2 µM in assay [11]; 5.66 µM (≈ 12.8 µg/mL) in [42].

The record behind these values is DBAASP.
